Assays:
[1] = target: recombinant human activated BRAF (V599E) kinase (Homo sapiens (Human), UniProt P15056, V600E); assay: biochemical
[2] = target: activated MAP kinase 2/ERK2 (Homo sapiens (Human), UniProt P28482); assay: biochemical
[3] = tested on: phospho-ERK1/2 in A375 cells; assay: cells; conditions: Homo sapiens, A-375, 3 h, read-out: A375 ICW IC50
Experimental: Human melanoma A375 cells were seeded at 50,000 cells per well in 100 μl growth medium in Costar 96 well black clear bottom plates and placed at 37° C./5% CO2 over night. Test compounds were diluted in DMSO to generate a concentration curve. A 5 mM stock was used for the highest concentration at 500 times; to yield a final concentration of 10 μM with 3-fold dilutions down to 0.0001 μM. 1 μl of diluted compound was added to 500 μl cell culture media and mixed well. Media was removed from cells and 200 μl of media containing compound was added. Cells were treated for 3 hrs with compound at 37° C., 5% CO2.
After the compound incubation, cells were washed once with PBS (Mg^++,Ca^++) and fixed in 4% paraformaldehyde/PBS for 1 hr at room temperature. Following fixation, cells were washed three times with PBS/0.1% TritonX-100(PBST), and then blocked with 5% skimmed milk/PBST, for 1-2 hr. 50 μL per well primary antibody was added (rabbit-anti-phospho-ERK1/2) at 1:500 in 5% skimmed milk/PBST and incubated overnight at 4° C. Cells were washed four times with 100 μl DELFIA wash buffer and 50 μL per well secondary antibody was added (DELFIA-EU-N1-labeled anti-rabbit antibody) at 1:3000 in DELFIA assay buffer and incubated for 2 hr at room temperature in the dark (covered). Cells were washed 4× with 100 μl DELFIA wash buffer. 50 μL per well Wallac-DELFIA enhancement solution was added. […]

[4] = tested on: A375 cells; assay: cells; conditions: Homo sapiens, A-375, 72 h, read-out: A375 XTT IC50 uM
Experimental: The cell viability assay in A375 cells (A375 ICW IC50 in Table 2) is set up in a 96-well plate format using XTT. XTT is a yellow tetrazolium salt that is cleaved to an orange formazan dye by the mitochondria of metabolically active cells. The procedure allows for rapid determination in a microtitre plate, to give reproducible and sensitive results.
A375 cells are grown in DMEM media containing 10% FBS and 1 mM sodium pyruvate. Cells are trypsinized and seeded at 1000 cells/well. After allowing the cells to adhere overnight, compound is added to the wells at the following final concentrations: 10, 3, 1, 0.3, 0.1, 0.03, 0.01, 0.001, and 0.0001 μM. The assay is set up in triplicates for each concentration. DMSO concentrations are kept at 0.5% /well. Three days after compound addition, the XTT assay is performed. Wells are washed once with PBS. 100 μL of DMEM media without phenol red or FBS is added to each well. […] 50 μL of the working solution of XTT is added to each well. […] The absorbance from wells with media and XTT alone, but without cells is considered the blank and subtracted from readings from all wells.
Percentage viability is calculated considering the blank subtracted value from wells treated with DMSO alone as 100% viable. IC50 values are calculated using Graphpad Prism, using non-linear regression curve fit for sigmoidal dose response (variable slope).

Sequence of recombinant human activated BRAF (V599E) kinase (P15056 417-766 V600E limits assumed): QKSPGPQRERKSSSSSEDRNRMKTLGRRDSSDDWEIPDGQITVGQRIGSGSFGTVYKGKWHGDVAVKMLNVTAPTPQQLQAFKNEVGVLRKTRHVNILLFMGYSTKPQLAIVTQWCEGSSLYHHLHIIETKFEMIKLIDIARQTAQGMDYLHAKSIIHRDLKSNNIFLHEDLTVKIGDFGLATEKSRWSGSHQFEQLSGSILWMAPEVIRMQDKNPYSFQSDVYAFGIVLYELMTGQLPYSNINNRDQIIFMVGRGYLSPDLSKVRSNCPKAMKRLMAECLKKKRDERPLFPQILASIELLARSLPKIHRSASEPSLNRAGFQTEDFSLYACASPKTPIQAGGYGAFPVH
Sequence of activated MAP kinase 2/ERK2 (P28482 whole entry, looked up): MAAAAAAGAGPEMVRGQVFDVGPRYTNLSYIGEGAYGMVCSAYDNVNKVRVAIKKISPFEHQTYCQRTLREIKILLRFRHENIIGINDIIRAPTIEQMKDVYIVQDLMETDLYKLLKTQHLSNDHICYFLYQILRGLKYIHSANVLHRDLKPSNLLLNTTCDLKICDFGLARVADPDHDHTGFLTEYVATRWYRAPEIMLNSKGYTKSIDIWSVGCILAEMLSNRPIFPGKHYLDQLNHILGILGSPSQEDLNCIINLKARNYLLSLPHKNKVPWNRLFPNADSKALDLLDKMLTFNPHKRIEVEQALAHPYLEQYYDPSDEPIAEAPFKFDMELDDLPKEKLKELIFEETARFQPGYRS

inhibition at 10 µM [1]: 0% | inhibition at 10 µM [2]: 55% | IC50 [3]: 3.9 nM | IC50 [4]: 0.003 µM
Compound: Cc1nc2cnc3cc(F)c(-c4ccc(Oc5ncccn5)cc4Cl)cc3c2n1[C@H]1CCN(C(=O)CO)C[C@@H]1F [Example 1A, 1-((3S,4S)-4-(8-(2-chloro-4-(pyrimidin-2-yloxy)phenyl)-7-fluoro-2-methyl-1H-imidazo[4,5-c]quinolin-1-yl)-3-fluoropiperidin-1-yl)-2-hydroxyethanone]
